Laboratory results as given in US9169241B2, “Quinolinyloxyphenylsulfonamides” (Max-Planck-Gesellschaft Zur Forderung der Wissenschaften …, priority 2009, dated 2015).
Like-named read-outs stand apart in the source and are kept apart here.

Key:
Type in all cases: cell-based
Hs578T = assay: Wound healing migration assay; settings: Homo sapiens, Hs-578T; HS578T cell line; Table Ib
How it was run: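 Compound exposure at 12.5, 6.25 and 3.125 μM, with DMSO control, on scratch-wounded monolayers (150000 cells/24 well, overnight). Wound closure imaged by microscopy, fixed with crystal violet after 48 h or 72 h depending on cell line; IC50 is the concentration giving 50% wound size between t0 and t48/t72.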

A172 = assay: Matrigel outgrowth assay/branching assay; settings: Homo sapiens, A 172, Table Vb, read-out: Total branching inhibition in Matrigel A172
How it was run: (§1)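 Invasive outgrowth into a 3 mg/ml Matrigel gel is judged from images taken after 48, 72 and 96 h of exposure to 3.125, 1.56 or 0.78 μM compound, with DMSO as control. Positive means total inhibition of branching.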

SF126 = assay: Matrigel outgrowth assay/branching assay; settings: Homo sapiens, SF-126, Table Vb, read-out: Total branching inhibition in Matrigel SF126
How it was run: as §1

U118 = assay: Matrigel outgrowth assay/branching assay; settings: Table Vb, read-out: Total branching inhibition in Matrigel U118
How it was run: as §1

cells = assay: Boyden chamber migration assay (Table VI); settings: Hs578T cells, 16 h migration
How it was run: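 Migration read-out is a count of fixed cells on the underside of an […] insert membrane after 16 h. Chemoattractant was medium with 10% FCS in the lower chamber; 20000 cells started in serum-free medium with 0.1% BSA above, and those left on top were removed by swab.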

viable cells in culture = assay: Cell viability assay at 10 μM (CellTiter-Glo, Table VII); settings: compound 10 μM, 72 h;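 also: graded A 0-20%; B 21-40%; C 41-60%; D over 60% viable cells relative to DMSO control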
How it was run: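 Cells were seeded at 1000 cells/well in 96-well plates in 100 μl culture medium and incubated for 72 h with 10 μM compound or a DMSO control. ATP content, which reflects metabolically active and therefore viable cells, was then determined by CellTiter-Glo luminescence (Promega) per the manufacturer's instructions and expressed relative to the DMSO control.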

[1] = Homo sapiens, HCT-116, HCT116 def, read-out: percentage (%) of viable cells HCT 116def
[2] = Homo sapiens, HCT-116, HCT116 wt, read-out: percentage (%) of viable cells HCT 116wt
[3] = Homo sapiens, HT-29, HT29, read-out: percentage (%) of viable cells HT29
[4] = Homo sapiens, NCI-H358, H358, read-out: percentage (%) of viable cells H358
[5] = Homo sapiens, NCI-H1650, H1650, read-out: percentage (%) of viable cells H1650
[6] = Homo sapiens, NCI-H1666, H1666, read-out: percentage (%) of viable cells H1666
[7] = Homo sapiens, NCI-H1975, H1975, read-out: percentage (%) of viable cells H1975
[8] = Homo sapiens, NCI-H1993, H1993, read-out: percentage (%) of viable cells H1993
[9] = Homo sapiens, A549, read-out: percentage (%) of viable cells A549
[10] = Homo sapiens, HCC827, read-out: percentage (%) of viable cells HCC827
[11] = Homo sapiens, SW480, read-out: percentage (%) of viable cells SW480
[12] = RKO, read-out: percentage (%) of viable cells RKO

| SMILES | IC50 (Hs578T) | IC100 (A172) | IC100 (SF126) | IC100 (U118) | IC50 (cells; Homo sapiens, Hs-578T, 16 h) | viability at 10 µM (viable cells in culture; [1]) | viability at 10 µM (viable cells in culture; [2]) | viability at 10 µM (viable cells in culture; [3]) | viability at 10 µM (viable cells in culture; [4]) | viability at 10 µM (viable cells in culture; [5]) | viability at 10 µM (viable cells in culture; [6]) | viability at 10 µM (viable cells in culture; [7]) | viability at 10 µM (viable cells in culture; [8]) | viability at 10 µM (viable cells in culture; [9]) | viability at 10 µM (viable cells in culture; [10]) | viability at 10 µM (viable cells in culture; [11]) | viability at 10 µM (viable cells in culture; [12]) | IC50 (cells) |
| --- | --- | --- | --- | --- | --- | --- | --- | --- | --- | --- | --- | --- | --- | --- | --- | --- | --- | --- |
| COc1cc2c(Oc3ccc(NS(=O)(=O)c4cccc(-c5ccccc5)c4)cc3F)ccnc2cc1OCCCN1CCCCC1 [Example 8, Biphenyl-3-sulfonic acid {3-fluoro-4-[6-methoxy-7-(3-piperidin-1-yl-propoxy)-quinolin-4-loxy]-phenyl}-amide] | ≤ 12.5 µM | ≤ 12.5 µM | ≤ 12.5 µM | ≤ 12.5 µM | ≤ 5 µM | 0 to 20% | 0 to 20% | 21 to 40% | 0 to 20% | 0 to 20% | 21 to 40% | 0 to 20% | 0 to 20% | 41 to 60% | 0 to 20% | 0 to 20% | 21 to 40% | – |
| COc1cc2c(Oc3ccc(NS(=O)(=O)c4ccccc4Cl)cc3F)ccnc2cc1OCCCN1CCCC(C)C1 (stereo not shown) [Example 38, 2-Chloro-N-(3-fluoro-4-{6-methoxy-7-[3-(3-methyl-piperidin-1-yl)-propoxy]-quinolin-4-yloxy}-phenyl)-benzenesulfonamide] | ≤ 12.5 µM | ≤ 12.5 µM | ≤ 12.5 µM | > 12.5 µM | 5 to 50 µM | 21 to 40% | 21 to 40% | 0 to 20% | 0 to 20% | > 60% | 21 to 40% | 21 to 40% | 21 to 40% | > 60% | 41 to 60% | 0 to 20% | 0 to 20% | – |
| COc1cc2c(Oc3ccc(NS(=O)(=O)c4ccccc4C(F)(F)F)cc3Cl)ccnc2cc1OCCCN1CCN(C)CC1 [Example 87, N-(3-Chloro-4-{6-methoxy-7-[3-(4-methyl-piperazin-1-yl)-propoxy]-quinolin-4-yloxy}-phenyl)-2-trifluoromethyl-benzenesulfonamide] | ≤ 12.5 µM | ≤ 12.5 µM | ≤ 12.5 µM | ≤ 12.5 µM | 5 to 50 µM | 0 to 20% | 41 to 60% | 0 to 20% | 0 to 20% | 21 to 40% | 41 to 60% | 0 to 20% | 41 to 60% | > 60% | 41 to 60% | 0 to 20% | 41 to 60% | ≤ 5 µM |
| COc1cc2c(Oc3ccc(NS(=O)(=O)c4ccc(F)cc4F)cc3F)ccnc2cc1OCCCN1CCCC(C)C1 (stereo not shown) [Example 47, 2,4-Difluoro-N-(3-fluoro-4-{6-methoxy-7-[3-(3-methyl-piperidin-1-yl)-propoxy]-quinolin-4-yloxy}-phenyl)-benzenesulfonamide] | ≤ 12.5 µM | > 12.5 µM | ≤ 12.5 µM | ≤ 12.5 µM | ≤ 5 µM | 21 to 40% | 0 to 20% | 41 to 60% | 0 to 20% | 41 to 60% | 21 to 40% | 0 to 20% | 0 to 20% | 41 to 60% | 41 to 60% | 21 to 40% | 0 to 20% | – |
| COc1cc2c(Oc3ccc(NS(=O)(=O)c4cccc(Oc5ccccc5)c4)cc3F)ccnc2cc1OCCCN1CCCCC1 [Example 10, N-{3-Fluoro-4-[6-methoxy-7-(3-piperidin-1-yl-propoxy)-quinolin-4-yloxy]-phenyl}-3-phenoxy-benzenesulfonamide] | ≤ 12.5 µM | ≤ 12.5 µM | ≤ 12.5 µM | ≤ 12.5 µM | ≤ 5 µM | 0 to 20% | 0 to 20% | 21 to 40% | 0 to 20% | 21 to 40% | 21 to 40% | 21 to 40% | 0 to 20% | 21 to 40% | 0 to 20% | 0 to 20% | 0 to 20% | – |
| COc1cc2c(Oc3ccc(NS(=O)(=O)c4ccccc4[N+](=O)[O-])cc3F)ccnc2cc1OCCCN1CCCCC1 [Example 7, N-{3-Fluoro-4-[6-methoxy-7-(3-piperidin-1-yl-propoxy)-quinolin-4-yloxy]-phenyl}-2-nitro-benzenesulfonamide] | ≤ 12.5 µM | > 12.5 µM | ≤ 12.5 µM | ≤ 12.5 µM | ≤ 5 µM | 21 to 40% | 0 to 20% | 0 to 20% | 0 to 20% | 0 to 20% | 21 to 40% | 21 to 40% | 21 to 40% | 41 to 60% | 0 to 20% | 0 to 20% | 0 to 20% | – |
